From ChEMBL document CHEMBL1201862, “PubChem BioAssay data set” (2004)
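All cell lines were grown in 96-well plates and treated with compound for 48 hours. Abbreviation: GI50, concentration required for 50% inhibition of growth.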 Activity calls are given as the source filed them. Rule as the data show it: active = GI50 up to about 1.1 µM and inactive = higher.

Assays:
Assay in all cases: NCI anticancer screen, dose series, 48 h
[1] = tested on: MOLT-4
[2] = tested on: KM-20L2
[3] = tested on: NCI-H226
[4] = tested on: SK-MEL-5
[5] = tested on: Malme-3M
[6] = tested on: HT-29
[7] = tested on: HOP-18
[8] = tested on: NCI-H23
[9] = tested on: A498
[10] = tested on: OVCAR-4
[11] = tested on: ACHN
[12] = tested on: DMS-273
[13] = tested on: UACC-257
[14] = tested on: LXFL 529
[15] = tested on: M19-MEL
[16] = tested on: SK-OV-3
[17] = tested on: SF-539
[18] = tested on: OVCAR-8
[19] = tested on: SNB-75
[20] = tested on: NCI-H522
[21] = tested on: KM12
[22] = tested on: DMS-114
[23] = tested on: SW-620
[24] = tested on: SF-268
[25] = tested on: SNB-19
[26] = tested on: SF-295
[27] = tested on: UACC-62
[28] = tested on: HL-60
[29] = tested on: EKVX
[30] = tested on: DLD-1
[31] = tested on: CCRF-CEM
[32] = tested on: LOX IMVI
[33] = tested on: A549
[34] = tested on: NCI-H460
[35] = tested on: COLO 205
[36] = tested on: SN12C
[37] = tested on: OVCAR-3
[38] = tested on: TK-10
[39] = tested on: 786-0
[40] = tested on: HCC 2998
[41] = tested on: HOP-62
[42] = tested on: HCT-15
[43] = tested on: M14
[44] = tested on: U-251
[45] = tested on: SK-MEL-2
[46] = tested on: RXF 631
[47] = tested on: XF498
[48] = tested on: RPMI-8226
[49] = tested on: OVCAR-5
[50] = tested on: RXF 393
[51] = tested on: CAKI-1
[52] = tested on: SK-MEL-28
[53] = tested on: K562
[54] = tested on: IGROV-1
[55] = tested on: UO-31
[56] = tested on: HOP-92
[57] = tested on: SR
[58] = tested on: SNB-78
[59] = tested on: HCT-116

Compound: O=C1OC(CC(=O)c2ccc(Cl)c(Cl)c2)C(Cl)=C1Cl (configuration not stated)
- GI50 [1]: 38.7 µM (inactive)
- GI50 [2]: > 100 µM (inactive)
- GI50 [3]: 68.9 µM (inactive)
- GI50 [4]: > 100 µM (inactive)
- GI50 [5]: > 100 µM (inactive)
- GI50 [6]: > 100 µM (inactive)
- GI50 [7]: > 100 µM (inactive)
- GI50 [8]: > 100 µM (inactive)
- GI50 [9]: 31.2 µM (inactive)
- GI50 [10]: > 100 µM (inactive)
- GI50 [11]: > 100 µM (inactive)
- GI50 [12]: > 100 µM (inactive)
- GI50 [13]: > 100 µM (inactive)
- GI50 [14]: 58.6 µM (inactive)
- GI50 [15]: > 100 µM (inactive)
- GI50 [16]: > 100 µM (inactive)
- GI50 [17]: 74.5 µM (inactive)
- GI50 [18]: > 100 µM (inactive)
- GI50 [19]: > 100 µM (inactive)
- GI50 [20]: 22.5 µM (inactive)
- GI50 [21]: > 100 µM (inactive)
- GI50 [22]: 52.6 µM (inactive)
- GI50 [23]: > 100 µM (inactive)
- GI50 [24]: > 100 µM (inactive)
- GI50 [25]: 79.3 µM (inactive)
- GI50 [26]: > 100 µM (inactive)
- GI50 [27]: > 100 µM (inactive)
- GI50 [28]: 82 µM (inactive)
- GI50 [29]: > 100 µM (inactive)
- GI50 [30]: > 100 µM (inactive)
- GI50 [31]: 20.8 µM (inactive)
- GI50 [32]: > 100 µM (inactive)
- GI50 [33]: > 100 µM (inactive)
- GI50 [34]: > 100 µM (inactive)
- GI50 [35]: > 100 µM (inactive)
- GI50 [36]: > 100 µM (inactive)
- GI50 [37]: > 100 µM (inactive)
- GI50 [38]: > 100 µM (inactive)
- GI50 [39]: > 100 µM (inactive)
- GI50 [40]: > 100 µM (inactive)
- GI50 [41]: > 100 µM (inactive)
- GI50 [42]: > 100 µM
- GI50 [43]: > 100 µM (inactive)
- GI50 [44]: > 100 µM (inactive)
- GI50 [45]: > 100 µM (inactive)
- GI50 [46]: > 100 µM (inactive)
- GI50 [47]: 64 µM (inactive)
- GI50 [48]: > 100 µM (inactive)
- GI50 [49]: > 100 µM (inactive)
- GI50 [50]: > 100 µM (inactive)
- GI50 [51]: > 100 µM (inactive)
- GI50 [52]: > 100 µM (inactive)
- GI50 [53]: 38.8 µM (inactive)
- GI50 [54]: > 100 µM (inactive)
- GI50 [55]: > 100 µM (inactive)

Compound: Cn1cnc([N+](=O)[O-])c1Sc1nccc(O)n1
- GI50 [1]: > 100 µM (inactive)
- GI50 [3]: > 100 µM (inactive)
- GI50 [4]: > 100 µM (inactive)
- GI50 [5]: > 100 µM (inactive)
- GI50 [6]: > 100 µM (inactive)
- GI50 [7]: > 100 µM (inactive)
- GI50 [8]: > 100 µM (inactive)
- GI50 [9]: > 100 µM (inactive)
- GI50 [10]: > 100 µM (inactive)
- GI50 [56]: > 100 µM (inactive)
- GI50 [11]: > 100 µM (inactive)
- GI50 [12]: > 100 µM (inactive)
- GI50 [57]: > 100 µM (inactive)
- GI50 [13]: > 100 µM (inactive)
- GI50 [14]: > 100 µM (inactive)
- GI50 [15]: > 100 µM (inactive)
- GI50 [16]: > 100 µM (inactive)
- GI50 [17]: > 100 µM (inactive)
- GI50 [18]: > 100 µM (inactive)
- GI50 [19]: > 100 µM (inactive)
- GI50 [20]: > 100 µM (inactive)
- GI50 [21]: > 100 µM (inactive)
- GI50 [22]: > 100 µM (inactive)
- GI50 [23]: > 100 µM (inactive)
- GI50 [24]: > 100 µM (inactive)
- GI50 [25]: > 100 µM (inactive)
- GI50 [58]: > 100 µM (inactive)
- GI50 [26]: > 100 µM (inactive)
- GI50 [27]: > 100 µM (inactive)
- GI50 [29]: > 100 µM (inactive)
- GI50 [30]: > 100 µM (inactive)
- GI50 [31]: > 100 µM (inactive)
- GI50 [32]: > 100 µM (inactive)
- GI50 [33]: > 100 µM (inactive)
- GI50 [34]: > 100 µM (inactive)
- GI50 [35]: > 100 µM (inactive)
- GI50 [36]: > 100 µM (inactive)
- GI50 [37]: > 100 µM (inactive)
- GI50 [38]: > 100 µM (inactive)
- GI50 [39]: > 100 µM (inactive)
- GI50 [40]: > 100 µM (inactive)
- GI50 [41]: > 100 µM (inactive)
- GI50 [43]: > 100 µM (inactive)
- GI50 [44]: > 100 µM (inactive)
- GI50 [45]: > 100 µM (inactive)
- GI50 [59]: > 100 µM (inactive)
- GI50 [46]: > 100 µM (inactive)
- GI50 [47]: > 100 µM (inactive)
- GI50 [48]: > 100 µM (inactive)
- GI50 [49]: > 100 µM (inactive)
- GI50 [51]: > 100 µM (inactive)
- GI50 [52]: > 100 µM (inactive)
- GI50 [53]: > 100 µM (inactive)
- GI50 [54]: > 100 µM (inactive)
- GI50 [55]: > 100 µM (inactive)

Compound: Cc1ncc(CCl)c2c1OC(C)(C)OC2
- GI50 [1]: 42.5 µM (inactive)
- GI50 [2]: > 100 µM (inactive)
- GI50 [3]: > 100 µM (inactive)
- GI50 [5]: 19.2 µM (inactive)
- GI50 [6]: 52.2 µM (inactive)
- GI50 [7]: 21.1 µM (inactive)
- GI50 [8]: > 100 µM (inactive)
- GI50 [9]: > 100 µM (inactive)
- GI50 [10]: 15.1 µM (inactive)
- GI50 [56]: 32.2 µM (inactive)
- GI50 [11]: 21.3 µM (inactive)
- GI50 [13]: 77.1 µM (inactive)
- GI50 [14]: > 100 µM (inactive)
- GI50 [15]: 74 µM (inactive)
- GI50 [16]: > 100 µM (inactive)
- GI50 [17]: 33.6 µM (inactive)
- GI50 [18]: 67.1 µM (inactive)
- GI50 [20]: 17 µM (inactive)
- GI50 [21]: 37.5 µM (inactive)
- GI50 [22]: > 100 µM (inactive)
- GI50 [23]: 18.7 µM (inactive)
- GI50 [24]: 22.8 µM (inactive)
- GI50 [25]: 63.8 µM (inactive)
- GI50 [58]: 39.7 µM (inactive)
- GI50 [26]: > 100 µM (inactive)
- GI50 [27]: > 100 µM (inactive)
- GI50 [28]: 27 µM (inactive)
- GI50 [29]: 20.5 µM (inactive)
- GI50 [30]: 50.9 µM (inactive)
- GI50 [31]: 47.8 µM (inactive)
- GI50 [32]: 17.3 µM (inactive)
- GI50 [33]: > 100 µM (inactive)
- GI50 [34]: > 100 µM (inactive)
- GI50 [36]: 35.6 µM (inactive)
- GI50 [37]: 26.1 µM (inactive)
- GI50 [38]: > 100 µM (inactive)
- GI50 [39]: 20.8 µM (inactive)
- GI50 [40]: > 100 µM (inactive)
- GI50 [41]: > 100 µM (inactive)
- GI50 [43]: 36.4 µM (inactive)
- GI50 [44]: 14.4 µM (inactive)
- GI50 [45]: > 100 µM (inactive)
- GI50 [59]: 25.1 µM (inactive)
- GI50 [46]: 30 µM (inactive)
- GI50 [47]: 78.2 µM (inactive)
- GI50 [48]: 37.2 µM (inactive)
- GI50 [49]: 22.3 µM (inactive)
- GI50 [50]: 16 µM (inactive)
- GI50 [52]: 24 µM (inactive)
- GI50 [53]: 41.2 µM (inactive)
- GI50 [54]: > 100 µM (inactive)
- GI50 [55]: > 100 µM (inactive)
